Laboratory results taken from PubChem BioAssay (NCI).
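A five-concentration, 48-hour dose response in 96-well plates underlies each endpoint, interpolated linearly between surrounding concentrations. GI50 is the concentration that inhibits growth by half. TGI is the concentration that stops growth completely.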

Columns and labels:
Test in all cases: DTP human tumour cell line panel, 48 h
A498 renal = tested on: A498 renal
RXF 393 renal = tested on: RXF 393 renal
A549 NSCLC = tested on: A549 NSCLC
SW-620 colon = tested on: SW-620 colon
OVCAR-4 ovarian = tested on: OVCAR-4 ovarian
UO-31 renal = tested on: UO-31 renal
HCT-15 colon = tested on: HCT-15 colon
MOLT-4 leukemia = tested on: MOLT-4 leukemia
SK-OV-3 ovarian = tested on: SK-OV-3 ovarian
IGROV1 ovarian = tested on: IGROV1 ovarian

SMILES	TGI (A498 renal)	TGI (RXF 393 renal)	TGI (A549 NSCLC)	TGI (SW-620 colon)	TGI (OVCAR-4 ovarian)	TGI (UO-31 renal)	TGI (HCT-15 colon)	TGI (MOLT-4 leukemia)	TGI (SK-OV-3 ovarian)	TGI (IGROV1 ovarian)	GI50 (A498 renal)	GI50 (SK-OV-3 ovarian)	GI50 (RXF 393 renal)	GI50 (A549 NSCLC)	GI50 (SW-620 colon)	GI50 (OVCAR-4 ovarian)	GI50 (IGROV1 ovarian)	GI50 (UO-31 renal)	GI50 (HCT-15 colon)	GI50 (MOLT-4 leukemia)
Cc1cc(=O)oc2c1cc(OCC(=O)OCCN1CCCCC1)c1occ(C)c12	> 100 µM	> 100 µM	> 100 µM	> 100 µM	> 100 µM	> 100 µM	> 100 µM	> 100 µM												
CCOC(=O)NC	> 100 µM	> 100 µM	> 100 µM	> 100 µM	> 100 µM	> 100 µM	> 100 µM		> 100 µM	> 100 µM										
Cn1c(Sc2ccc(-c3cccnc3)n2C)ccc1-c1cccnc1	47.6 µM	36.3 µM	80.9 µM	23.6 µM	36.6 µM	33.4 µM	35.6 µM	7.78 µM	60.9 µM	31.9 µM										
O=C1c2ccccc2C(=O)c2c1ccc(C(=O)O)c2-c1ccc2ccccc2c1	85.5 µM		> 100 µM	89.5 µM	> 100 µM	83.3 µM	56.6 µM	53 µM	> 100 µM	68.3 µM										
CCCCCCCCCCCCCCCCOCC(COP(=O)([O-])OCC[n+]1ccc(N(C)C)cc1)OCC (configuration not stated)		31.7 µM	30.4 µM	37.2 µM	29.3 µM	29.4 µM	32.5 µM	18.4 µM		33.8 µM										
COc1cc2c(cc1Oc1ccc(OC)c3c1CC1c4c(cc(OC)c(OC)c4-3)CCN1C)CC1c3c(cc(OC)c(OC)c3-2)CCN1C (configuration not stated)	12.6 µM	3.81 µM	25.9 µM	5.73 µM	10.4 µM	17.7 µM	6.93 µM	4.41 µM	31.9 µM	18.7 µM										
NC(=O)Nc1cc(O)ccc1N=Nc1ccc(S(=O)(=O)Nc2ccccn2)cc1	> 100 µM		> 100 µM	> 100 µM	> 100 µM	> 100 µM	> 100 µM	> 100 µM	> 100 µM	> 100 µM										
COc1cc(C)c2c(=O)c3c(oc2c1)C(=O)c1c(O)c(OC)cc(O)c1C3=O	5.54 µM	2.71 µM	7.84 µM	10.7 µM	4.28 µM	3.62 µM	3.79 µM	4.6 µM	3.98 µM	4.29 µM										
COc1ccc(CC2c3cc(OC)c(OC)c(OC)c3CC[N+]2(C)C)cc1Oc1ccc(CC2c3cc4c(c(OC)c3CCN2C)OCO4)cc1 (configuration not stated)	> 100 µM	> 100 µM	> 100 µM	> 100 µM	> 100 µM	> 100 µM	> 100 µM	> 100 µM	> 100 µM	> 100 µM										
c1ccc2sc(SCN(C3CCCCC3)C3CCCCC3)nc2c1	> 100 µM	> 100 µM	> 100 µM	> 100 µM	> 100 µM	> 100 µM	> 100 µM	> 100 µM		> 100 µM										
COc1c(Cl)cc(S(=O)O)cc1Cl	> 100 µM	> 100 µM			> 100 µM	> 100 µM		> 100 µM	> 100 µM											
COc1cc(O)c2c(c1)C(=O)c1cc(C)cc(O)c1C2=O	> 100 µM		> 100 µM	> 100 µM	> 100 µM	> 100 µM		> 100 µM	> 100 µM	> 100 µM										
O=C(O)C1=NNC(C(=O)O)=NN1		> 100 µM	> 100 µM	> 100 µM	> 100 µM	> 100 µM	> 100 µM	> 100 µM	> 100 µM	> 100 µM										
Fc1ccc(-c2nnc3sc(COc4ccccc4Cl)nn23)cc1Cl	93.6 µM	69.2 µM	> 100 µM	74.5 µM	78.4 µM	> 100 µM	48.7 µM	> 100 µM	> 100 µM	62.8 µM	34.6 µM	93.3 µM	38.1 µM	41.1 µM	30.2 µM	28.2 µM	17.7 µM	32.7 µM	17.7 µM	24.5 µM
CC(CO)(CO)Nc1ncnc2ccccc12	> 100 µM	> 100 µM	> 100 µM	> 100 µM	> 100 µM	> 100 µM	> 100 µM	> 100 µM		> 100 µM										
Nc1nnc(N)n1NC(=O)C(=O)Nc1ccc([N+](=O)[O-])cc1	> 100 µM	> 100 µM	> 100 µM	> 100 µM	> 100 µM	> 100 µM	> 100 µM	> 100 µM	> 100 µM	> 100 µM										
CC1(O)CC23CC1CCC2(C)C12CCCC(C)(C(=O)O1)C2CC3O (configuration not stated)	> 100 µM		> 100 µM	> 100 µM	> 100 µM	> 100 µM	> 100 µM		> 100 µM	> 100 µM										
